Assay results from article PMC7377474, “Preclinical characterization of CPL302-253, a selective inhibitor of PI3Kδ, as the candidate for the inhalatory treatment and prevention of Asthma” (PLoS ONE, 2020).
Several values for one entry are separate records, joined by “and”; a condition that tells them apart may be missing. Equal entries are not always repeated.

Assays:
[1] = target: T1, PI3Kδ (Homo sapiens, UniProt O00329); assay: KINOMEScan competitive binding assay, Kd
T1 construct: purchased Discoverex (KINOMEscan service)
T1 sequence (O00329 whole entry): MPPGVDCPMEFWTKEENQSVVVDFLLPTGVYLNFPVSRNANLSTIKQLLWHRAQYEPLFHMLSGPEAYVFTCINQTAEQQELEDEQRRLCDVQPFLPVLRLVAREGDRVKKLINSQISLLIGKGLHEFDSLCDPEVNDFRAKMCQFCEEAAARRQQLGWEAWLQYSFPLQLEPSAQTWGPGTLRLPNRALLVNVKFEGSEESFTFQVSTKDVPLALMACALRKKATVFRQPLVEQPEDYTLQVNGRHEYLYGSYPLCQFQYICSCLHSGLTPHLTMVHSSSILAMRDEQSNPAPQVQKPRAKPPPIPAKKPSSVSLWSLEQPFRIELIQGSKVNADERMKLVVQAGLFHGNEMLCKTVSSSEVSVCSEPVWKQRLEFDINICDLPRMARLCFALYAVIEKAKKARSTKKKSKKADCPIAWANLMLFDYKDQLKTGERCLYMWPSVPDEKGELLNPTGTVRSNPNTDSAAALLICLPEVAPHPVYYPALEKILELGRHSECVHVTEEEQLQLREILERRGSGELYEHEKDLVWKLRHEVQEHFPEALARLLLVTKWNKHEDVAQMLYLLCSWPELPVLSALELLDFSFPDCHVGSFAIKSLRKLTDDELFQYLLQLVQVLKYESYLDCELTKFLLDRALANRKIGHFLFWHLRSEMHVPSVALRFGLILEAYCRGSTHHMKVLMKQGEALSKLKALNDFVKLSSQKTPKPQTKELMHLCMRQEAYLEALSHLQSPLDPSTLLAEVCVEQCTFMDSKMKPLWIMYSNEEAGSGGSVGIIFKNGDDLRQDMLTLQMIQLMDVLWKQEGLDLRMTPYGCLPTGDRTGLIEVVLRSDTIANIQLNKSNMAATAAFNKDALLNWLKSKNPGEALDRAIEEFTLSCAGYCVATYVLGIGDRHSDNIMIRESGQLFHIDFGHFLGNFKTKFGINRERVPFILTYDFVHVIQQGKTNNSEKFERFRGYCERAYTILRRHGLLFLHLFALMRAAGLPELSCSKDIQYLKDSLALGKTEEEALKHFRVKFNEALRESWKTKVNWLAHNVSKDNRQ
Procedure: (§1) The inhibitor-kinase binding affinity was assessed in KINOMEscan™ assay (Discoverex) according to service provider’s protocol. In brief, in this binding assay the studied compound in solution is incubated with DNA-tagged kinase and kinase active-site directed ligand bound to the beads. The compound competes for binding to kinase with the immobilized ligand. After incubation beads are removed from the solution and kinase bound to ligand is quantified by qPCR. The strength of compound binding is determined based on its ability to block kinase-ligand binding. 11-point 3-fold serial dilution of CPL302-253 was used in order to determine its binding constants (Kd) against different isotypes of class I PI3K. The single concentration of CPL302-253 was used in order to determine its specificity in abroad panel of 468 human kinases. The measure of compounds affinity to each kinase in the panel was the percentage of kinase activity inhibition by tested ligand in comparison to the control.

[2] = tested on: panel of 468 human kinases; assay: KINOMEScan broad panel; assay type: binding; conditions: 1 μM
Procedure: as §1

[3] = tested on: co-culture of dermal fibroblasts and keratinocytes; assay: BioMAP profiling, KF3CT system; assay type: cell-based, human
Procedure: BioMap Profiling study was performed by DiscovereX according to service provider’s protocol. In brief cultures or co-cultures of human primary cells were treated with sets of stimulators specific for cell subsets. […] The assays included positive and negative controls as well as vehicle control. The expression of biomarkers specific for each system was measured by ELISA and other techniques.

[4] = target: T2, hERG (Homo sapiens, UniProt Q12809); assay type: cell-based; conditions: 10 μM
T2 construct: purchased DiscoverX (Eurofins) SafetyScan44
T2 sequence (Q12809 whole entry): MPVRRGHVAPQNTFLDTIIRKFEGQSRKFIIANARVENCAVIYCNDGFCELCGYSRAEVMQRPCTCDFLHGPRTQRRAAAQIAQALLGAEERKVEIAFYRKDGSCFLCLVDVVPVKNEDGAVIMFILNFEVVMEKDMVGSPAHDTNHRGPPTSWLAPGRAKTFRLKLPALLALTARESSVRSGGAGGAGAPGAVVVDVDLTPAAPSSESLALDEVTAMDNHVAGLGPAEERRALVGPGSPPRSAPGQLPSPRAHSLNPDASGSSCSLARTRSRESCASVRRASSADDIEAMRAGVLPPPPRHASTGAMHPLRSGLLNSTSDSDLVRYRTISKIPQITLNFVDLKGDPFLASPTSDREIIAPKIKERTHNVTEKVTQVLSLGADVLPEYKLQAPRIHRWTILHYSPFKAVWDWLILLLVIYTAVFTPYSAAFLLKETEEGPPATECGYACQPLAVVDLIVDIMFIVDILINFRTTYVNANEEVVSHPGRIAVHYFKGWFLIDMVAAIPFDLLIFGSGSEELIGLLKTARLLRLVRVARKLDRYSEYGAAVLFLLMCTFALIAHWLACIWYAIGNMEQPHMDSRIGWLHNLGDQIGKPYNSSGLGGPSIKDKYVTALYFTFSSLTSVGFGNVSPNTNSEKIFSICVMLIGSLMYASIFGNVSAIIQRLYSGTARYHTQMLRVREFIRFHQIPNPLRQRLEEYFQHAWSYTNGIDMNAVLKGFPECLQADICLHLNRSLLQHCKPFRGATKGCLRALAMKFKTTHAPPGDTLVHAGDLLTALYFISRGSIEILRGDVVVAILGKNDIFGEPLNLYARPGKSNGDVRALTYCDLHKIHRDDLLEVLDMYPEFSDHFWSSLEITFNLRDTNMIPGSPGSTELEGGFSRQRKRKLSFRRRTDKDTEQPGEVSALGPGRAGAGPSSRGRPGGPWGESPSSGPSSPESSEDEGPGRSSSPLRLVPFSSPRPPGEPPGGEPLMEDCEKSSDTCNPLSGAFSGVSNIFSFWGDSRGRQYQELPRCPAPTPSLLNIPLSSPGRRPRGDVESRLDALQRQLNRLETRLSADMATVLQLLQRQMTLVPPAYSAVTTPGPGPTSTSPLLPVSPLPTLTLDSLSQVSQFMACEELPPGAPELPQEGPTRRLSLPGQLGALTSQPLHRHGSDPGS
Procedure: SafetyScan44 assay was performed by DiscoverX according to service provider’s protocol.

[5] = in vitro; assay type: cell-based; conditions: human
Procedure: (§2) The study was performed by Cyprotex according to service provider’s protocol. In brief NHBE cells were plated on 96-well plate. The cells were dosed with test compound at 0.0457, 0.137, 0.412, 1.24, 3.7, 11.1, 33.3, 100 μM and incubated for 48 h. The cells were loaded with dye or antibody relevant for each health marker and scanned using fluorescent cell imager. The following parameters were studied: cell count, nuclear size, DNA structure, mitochondrial mass, mitochondrial membrane potential, oxidative stress, glutathione content. The baseline for each parameter was determined based on vehicle control sample. The software calculates the percentage of cells that are low or high responders (depending on the biological significance of a particular readout). The vehicle control wells are then used to determine significance limits for wells that have a greater than expected fraction of low or high responders. The minimum effective concentration was determined from the lowest concentration whose mean value exceeds the significance level and provided either a clear dose-response relationship or at least two consecutive concentration points past the significance level.

[6] = tested on: Normal Human Bronchial Epithelial (NHBE) cells; assay: in vitro; assay type: cell-based; conditions: 48 h
Procedure: as §2

[7] = tested on: CD8 T cells; assay: CD8 T cell activation, IFNγ production; assay type: cell-based, human; conditions: for IFNγ release (Fig 3C), single replicates: activated CD8 T cells, 48 h
Procedure: CD8 T cells were isolated from human frozen PBMC using EasySep Human CD8 T cell Isolation Kit (StemCell Technologies) according to manufacturer’s protocol and cultured in AIM V medium (Gibco). To cell culture different concentrations of CPL302-253 were added. The cells were activated with Human T Cell Activation/Expansion Kit (Miltenyibiotec) according to manufacturer’s protocol. IFNγ production was measured after 48 h of activation in culture supernatants using IFNγ Human Uncoated ELISA Kit (Invitrogen) according to manufacturer’s protocol.

[8] = tested on: HDM induced asthma mouse model; assay: HDM-steroid insensitive asthma mice model; conditions: for IL-33 concentration in BAL (Fig 7B), single animals / eosinophils number in BAL (Fig 7A), single animals: day 15
[9] = HDM + 0.5 mg/kg i.n., 0.5 mg/kg
[10] = i.n. on day 12, 13 and 14, HDM challenge day 14, BALF day 15

CC(C)(C)N1CCN(Cc2cc3nc(-c4cncc5[nH]ccc45)cc(N4CCOCC4)n3n2)CC1 [CPL302-253]
Kd [1]: 0.00085 µM
inhibition of binding to specific substrate, kinases other than members of PI3K [2]: ≤ 70%
concentration inducing decrease of Plasminogen Activator Inhibitor-1 expression [3]: ≥ 150 nM
decrease of Plasminogen Activator Inhibitor-1 expression, effect size [3]: lower than 0.2 log10
% Response hERG Blocker [4]: -2.7%
AC50 at 48 h [5]: > 100 µM
AC50 [6]: > 100 µM
MEC Cell count [6]: 50.6 µM
MEC DNA structure [6]: 24.4 µM
MEC Glutathione content [6]: 10.6 µM
MEC Mitochondrial mass [6]: 20.8 µM
MEC Mitochondrial membrane potential [6]: 22.8 µM
MEC Nuclear size [6]: 75.3 µM
MEC Oxidative stress [6]: 16.1 µM
lowest concentration influencing any cell health parameter [6]: ≥ 10 µM
concentration at which IFNγ production was blocked ([7]; CD8 T cells after TCR engagement): 1 nM
IFNγ release (Fig 3C), single replicates ([7]; concentration 1 (unit not given)): 418.61 and 469.87 and 245.35
IFNγ release (Fig 3C), single replicates ([7]; concentration 10 (unit not given)): 400.4 and 276.31 and 203.71
IFNγ release (Fig 3C), single replicates ([7]; concentration 100 (unit not given)): 219.02 and 101.31 and 52.94
IFNγ release (Fig 3C), single replicates ([7]; concentration 10000, first column (unit not printed)): 55.96 and 7.95 and 23.25
IFNγ release (Fig 3C), single replicates ([7]; concentration 10000, second column (unit not printed)): 155.93 and 70.92 and 72.2
IL-33 concentration in BAL (Fig 7B), single animals [8, 9]: 1.6 and -0.3 and -1.1 and -0.8 and -4.4 and 3 and 4.4 and -0.4 and -4.7 and 1.7
eosinophils number in BAL (Fig 7A), single animals [8, 9]: 32736 and 8169.96 and 5712.6 and 6975 and 20671.5 and 48073 and 6811.27 and 9495.5 and 84434.2 and 46844.4
IL-33 concentration in BAL (Fig 7B), single animals ([8]; HDM + 5 mg/kg i.n., 5 mg/kg): 0.5 and 3 and -2.8 and 10.8 and 6.1 and 2.3 and 1 and 2.6 and 9.8
eosinophils number in BAL (Fig 7A), single animals ([8]; HDM + 5 mg/kg i.n., 5 mg/kg): 17665.4 and 6769.78 and 17936.5 and 52878.7 and 44238.8 and 8082.51 and 80102.2 and 24189.9 and 38935.1 and 17565.7
IL-33 production in the lungs [8, 10]: effectively blocked
eosinophil influx to the lungs [8, 10]: effectively blocked
